Results published in publication PMC11366520, “Purification of angiotensin converting enzyme inhibitory peptides and antihypertensive effect generated from Indonesian traditional fermented beef (Cangkuk)” (Animal Bioscience, 2024).
Read-outs that look alike come from different tables or passages of the source. Residues, ends and D or L forms follow the SMILES beside them. No end group written: not given here.

Experiments:
[1] = pepsin hydrolyzed peptides from porcine skeletal myosin B; ref [9]; cited from earlier work
From the text: Meat and meat products are excellent sources of ACE-inhibitory peptides. ACE-inhibitory peptides from animal proteins can be produced by several methods, including enzymatic hydrolysis and fermentation. […] The pepsin hydrolyzed peptide Lys-Arg-Val-Ile-Gln-Try and the Val-Lys-Ala-Gly-Ph sequence from por ...

ACE = settings: cited from earlier work; for IC50: read-out: IC50 value (ACE inhibition)
Procedure: According to a previous study, “Cangkuk” is made from fresh beef to which bamboo shoots, rice and salt are added. The treatment evaluated in the current research was addition of bamboo shoots with different preparation methods (chopped, ground, and extracted) and varied meat:bamboo shoot ratios (1:0.75, 1:1, and 1:1.25). Then, these preparations were fermented under anaerobic conditions at room temperature for seven days. It was reported that all treatments had ACE-inhibitory activities ranging from 43% to 80%. […] EAPLNPKANR, is a fragment of the 3rd to 12th amino acid sequence of LTEAPLNPKANREK [25]. […] The presence of hydrophobic amino acids such as isoleucine, valine, and glycine in the sequence has been associated with ACE-inhibitory activity.

SHRs = settings: cited from earlier work
From the text: Meat and meat products are excellent sources of ACE-inhibitory peptides. ACE-inhibitory peptides from animal proteins can be produced by several methods, including enzymatic hydrolysis and fermentation. […] The higher the dose, the greater the decrease in SBPs. […] There is strong association between ACE inhibition and the antihypertensive effects of a bioactive peptide owing to its structure, size, chain length, type and order of amino acids ... || (+ 1 further places)

[2] = target: T1, Angiotensin converting enzyme (from rabbit lung) (Oryctolagus cuniculus, UniProt P12822); assay: ACE-inhibitory activity, hippuric acid liberated from Hip-His-Leu (Cushman and Cheung, modified); format: biochemical; settings: synthetic peptides, purity 80%, sodium borate buffer pH 8.3, Hip-His-Leu 7.6 mM, NaCl 608 mM, pre-incubation 5 min, incubation 30 min, 37°C, 228 nm
T1 construct: Angiotensin converting enzyme (from rabbit lung); purchased Sigma-Aldrich Co. (St. Louis, MO, USA); host or cells: rabbit lung (tissue-derived)
T1 sequence (P12822 34-1310): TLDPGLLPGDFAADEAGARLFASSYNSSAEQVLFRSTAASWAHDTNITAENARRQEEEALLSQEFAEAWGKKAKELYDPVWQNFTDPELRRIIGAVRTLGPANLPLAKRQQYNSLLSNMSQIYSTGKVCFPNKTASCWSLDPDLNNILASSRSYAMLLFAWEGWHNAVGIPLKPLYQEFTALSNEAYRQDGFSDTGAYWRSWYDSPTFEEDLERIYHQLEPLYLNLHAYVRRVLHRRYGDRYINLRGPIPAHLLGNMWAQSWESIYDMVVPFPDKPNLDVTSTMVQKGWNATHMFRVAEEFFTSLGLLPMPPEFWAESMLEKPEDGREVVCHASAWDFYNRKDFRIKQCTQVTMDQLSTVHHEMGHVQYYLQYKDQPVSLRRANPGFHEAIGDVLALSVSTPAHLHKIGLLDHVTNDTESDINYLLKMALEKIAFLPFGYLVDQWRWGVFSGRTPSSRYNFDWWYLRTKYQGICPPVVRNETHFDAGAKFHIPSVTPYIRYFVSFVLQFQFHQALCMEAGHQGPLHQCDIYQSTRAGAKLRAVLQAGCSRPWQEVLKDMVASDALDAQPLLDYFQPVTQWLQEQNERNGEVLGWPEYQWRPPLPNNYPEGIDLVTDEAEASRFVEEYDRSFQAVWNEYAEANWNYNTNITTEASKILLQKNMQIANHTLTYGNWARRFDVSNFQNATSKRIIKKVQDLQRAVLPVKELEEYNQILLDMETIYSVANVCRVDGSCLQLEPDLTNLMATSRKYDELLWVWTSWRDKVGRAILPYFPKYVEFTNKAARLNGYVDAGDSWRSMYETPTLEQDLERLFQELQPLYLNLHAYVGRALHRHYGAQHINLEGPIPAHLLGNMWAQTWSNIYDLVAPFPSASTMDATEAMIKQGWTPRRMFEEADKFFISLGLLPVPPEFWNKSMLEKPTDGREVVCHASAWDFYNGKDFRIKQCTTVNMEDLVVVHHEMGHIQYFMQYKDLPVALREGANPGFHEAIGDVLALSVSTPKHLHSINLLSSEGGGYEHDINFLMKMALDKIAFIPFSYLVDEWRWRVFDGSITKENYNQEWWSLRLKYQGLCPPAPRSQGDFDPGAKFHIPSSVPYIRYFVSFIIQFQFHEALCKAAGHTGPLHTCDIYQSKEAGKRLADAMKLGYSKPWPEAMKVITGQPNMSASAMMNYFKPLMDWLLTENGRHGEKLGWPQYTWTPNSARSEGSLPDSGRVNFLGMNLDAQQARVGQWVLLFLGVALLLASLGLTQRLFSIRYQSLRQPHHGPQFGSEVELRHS
From the text: The raw materials used in processing Cangkuk were fresh beef meat (brisket) from male Bali cattle, aged 2.5 to 3 years, purchased from the Animal Slaughtering House in Pekanbaru City. Green bamboo shoots were harvested from local farms. The additional ingredients were cooked rice, salt and distilled water. Angiotensin converting enzyme (from rabbit lung) and the substrate, hippuryl-L-histidyl-leucine, were purchased from Sigma-Aldrich Co. (St. Louis, MO, USA). All the chemicals and reagents used were of analytical grade.
ACE-inhibitory activity was analyzed according to the method of Cushman and Cheung with modifications by Arihara et al. This assay is based on liberation of hippuric acid from Hip-His-Leu catalyzed by ACE. A sample solution (15 μL) was mixed with 125 μL of a 100 mM sodium borate buffer (pH 8.3) containing 7.6 mM Hyp-Hys-Leu and 608 mM NaCl followed by pre-incubation for 5 min at 37°C. The reaction was initiated by adding 50 μL of ACE dissolved in distilled water, and the mixture was incubated for 30 min at 37°C. The reaction was stopped by adding 125 μL of 1 N HCl. […] Hippuric acid was dissolved with 1 mL of distilled water and its concentration spectrophotometrically determined at 228 nm. ACE inhibitory activity was calculated as: […]
where A, absorbance of the sample reaction; B, absorbance of the blank; and C, absorbance of the control (distilled water).

In the case of Val-Lys-Ala-Gly-Ph, the “antihypertensive effects in vivo (in words)” value [1] is given as “showed antihypertensive effects in vivo”.
In the case of “IVDR [tetrapeptide from Paralichthys olivaceus surimi]”, the “ACE inhibitory activity (in words)” value (ACE; tetrapeptide from Paralichthys olivaceus surimi, ref [31]) is listed as “high ACE inhibitory activity” and the “decrease of blood pressure in SHRs (in words)” value (SHRs; 6 h after administration, ref [31]) is listed as “could decrease blood pressure in SHRs 6 h after its administration”.
In the case of IKEVTER, the “ACE-inhibitory activity (in words)” value (ACE; peptide from venison treated with pepsin-trypsin-pancreatin, ref [28]) is given as “strong ACE-inhibitory activity”.
In the case of EAPLNPKANR [EAPLNPKANR], the IC50 [2] is reported as 44.6 µM.
In the case of “LIVGIIRCV [nonapeptide from beef myofibrillar protein hydrolysate]”, the “antihypertensive effect in SHRs (in words)” value (SHRs; alkaline-AK-pepsin hydrolyzed peptide from beef myofibrillar protein, ref [8]) is listed as “had an antihypertensive effect in SHRs”.
For LTEAPLNPKANREK, the IC50 (ACE; peptide from goat meat hydrolysate (pepsin, trypsin, chymotrypsin), ref [25]) is listed as 120 µM.
For IVGRPRHQG, the IC50 (ACE; nonapeptide from Katsuobusi, ref [26]) is listed as 6.2 µM.
In the case of WGAP, the “reduction of SBP” value (SHRs; 100 mg/kg BW oral, SHRs, 4 h after administration, ref [33]) is given as “up to 42.6 mmHg”.
For “Lys-Arg-Val-Ile-Gln-Try [pepsin hydrolyzed peptide from porcine skeletal myosin B]”, the “antihypertensive effects in vivo (in words)” value [1] is listed as “showed antihypertensive effects in vivo”.
Work on `CC[C@H](C)[C@H](N)C(=O)N[C@H](C(=O)NCC(=O)O)C(C)C` [IVG] (H-Ile-Val-Gly-OH) yielded an IC50 [2] of 97.3 µM.
